Measured values reported in PubChem BioAssay (NCI).
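Each compound was tested at five concentrations against cells in 96-well plates for 48 hours. TGI marks complete inhibition of growth.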

How the values were obtained:
Assay in all cases: DTP human tumour cell line panel, 48 h
[1] = tested on: 786-0 renal
[2] = tested on: A498 renal
[3] = tested on: CCRF-CEM leukemia
[4] = tested on: HCC-2998 colon
[5] = tested on: HCT-116 colon
[6] = tested on: MOLT-4 leukemia
[7] = tested on: NCI-H23 lung
[8] = tested on: NCI-H522 lung
[9] = tested on: SK-MEL-2 melanoma
[10] = tested on: SK-MEL-5 melanoma
[11] = tested on: SNB-75 CNS
[12] = tested on: SR leukemia
[13] = tested on: TK-10 renal
[14] = tested on: HS 578T breast
[15] = tested on: MCF7 breast
[16] = tested on: MDA-MB-231 breast
[17] = tested on: MDA-MB-435
[18] = tested on: MDA-N
[19] = tested on: NCI/ADR-RES ovarian
[20] = tested on: UACC-62 melanoma

`Cc1c2ccncc2c(C)c2c1[nH]c1ccc(OC(C)C)cc12` was tested, and the TGI [1] was 2.44 µM, the TGI [2] was 2.78 µM and the TGI [3] was 7.68 µM. It also gave a TGI [4] of 3.48 µM, a TGI [5] of 2.04 µM and a TGI [6] of 2.97 µM. It also gave a TGI [7] of 2.93 µM, a TGI [8] of 3.06 µM and a TGI [9] of 3.22 µM. For the same compound, the TGI [10] was 3.2 µM, the TGI [11] was 3.36 µM and the TGI [12] was 3.73 µM. It also gave a TGI [13] of 3.37 µM.

With `O=NN1C(c2ccccc2)CC(=NO)CC1c1ccccc1` (stereo not given) the TGI [1] was > 100 µM, the TGI [4] was > 100 µM and the TGI [5] was > 100 µM. For the same compound, the TGI [14] was > 100 µM, the TGI [15] was > 100 µM and the TGI [16] was > 100 µM. For the same compound, the TGI [17] was > 100 µM, the TGI [18] was > 100 µM and the TGI [6] was > 100 µM. The TGI [7] was > 100 µM, the TGI [8] was > 100 µM and the TGI [19] was > 100 µM. For the same compound, the TGI [9] was > 100 µM, the TGI [10] was > 100 µM and the TGI [11] was > 100 µM. The TGI [13] was > 100 µM and the TGI [20] was > 100 µM.

`OCCOCCN1CCN(CCCN2c3ccccc3Sc3ccc(C(F)(F)F)cc32)CC1` showed a TGI [1] of 31.3 µM, a TGI [2] of 22.6 µM and a TGI [3] of 1.32 µM. The TGI [4] was 13 µM, the TGI [5] was 20.3 µM and the TGI [14] was 38.9 µM. For the same compound, the TGI [15] was 28.3 µM, the TGI [16] was 24 µM and the TGI [17] was 23.8 µM. For the same compound, the TGI [18] was 26.1 µM, the TGI [6] was 29.8 µM and the TGI [7] was 31 µM. For the same compound, the TGI [8] was 28.2 µM, the TGI [9] was 34.7 µM and the TGI [10] was 13.8 µM. The TGI [11] was 13.6 µM, the TGI [13] was 24.1 µM and the TGI [20] was 19.5 µM.

In the case of `COc1cc(C=O)cc(/C=N/n2c3ccccc3c3ccccc32)c1O`, the TGI [1] is reported as > 100 µM, the TGI [2] is reported as 48.7 µM and the TGI [3] is reported as > 100 µM. The TGI [4] was 67.4 µM, the TGI [5] was > 100 µM and the TGI [14] was > 100 µM. The TGI [15] was 42.6 µM, the TGI [16] was > 100 µM and the TGI [17] was 47.5 µM. The TGI [6] was 76.8 µM, the TGI [7] was > 100 µM and the TGI [8] was 73.2 µM. The TGI [11] was 15.7 µM, the TGI [12] was > 100 µM and the TGI [13] was > 100 µM. For the same compound, the TGI [20] was > 100 µM.

For `Cc1ccc(S(=O)(=O)N2CCC(=O)c3cc(Br)ccc32)cc1`, the TGI [1] was > 67.2 µM, the TGI [2] was 30.1 µM and the TGI [4] was > 54.1 µM. The TGI [5] was > 100 µM, the TGI [15] was > 49.1 µM and the TGI [16] was > 54.5 µM. The TGI [17] was 4.98 µM, the TGI [18] was 13.3 µM and the TGI [6] was > 26.6 µM. For the same compound, the TGI [7] was > 93.9 µM, the TGI [8] was > 55.6 µM and the TGI [19] was 58.9 µM. It also gave a TGI [9] of 36.3 µM, a TGI [10] of 21.7 µM and a TGI [11] of 59.6 µM. For the same compound, the TGI [12] was > 100 µM, the TGI [13] was 54.4 µM and the TGI [20] was 18.3 µM.

With `CCN(C(=O)N[C@@H](Cc1ccccc1)C(=O)N[C@@H](CC(C)C)C(=O)OC)c1ccccc1` the TGI [1] was 40.5 µM, the TGI [3] was > 100 µM and the TGI [4] was > 100 µM. The TGI [5] was 39.2 µM, the TGI [15] was 62 µM and the TGI [16] was > 100 µM. The TGI [17] was > 100 µM, the TGI [18] was > 100 µM and the TGI [6] was 44.2 µM. For the same compound, the TGI [7] was 53.8 µM, the TGI [8] was 22.6 µM and the TGI [19] was > 100 µM. The TGI [9] was > 100 µM, the TGI [12] was 23.9 µM and the TGI [13] was > 100 µM. The TGI [20] was 36.1 µM.

For `O=c1cc(-c2ccccc2)c2ccccc2[nH]1`, the TGI [1] was > 100 µM, the TGI [3] was > 100 µM and the TGI [5] was > 100 µM. The TGI [6] was > 100 µM, the TGI [7] was > 100 µM and the TGI [8] was > 100 µM. The TGI [9] was > 100 µM, the TGI [10] was 93.2 µM and the TGI [11] was 46.5 µM. For the same compound, the TGI [12] was > 100 µM, the TGI [13] was > 100 µM and the TGI [20] was > 100 µM.
